In patent US11932634B2 (Gilead Sciences, Inc., priority 2021, dated 2024):

Tests used:
[1] = test system: Jurkat NFκB-luciferase cells; test: Jurkat NFκB-Luciferase Assay; format: cell-based; settings: Homo sapiens; Jurkat NFκB-luciferase cells activated with anti-CD3 antibody (OKT3), 2.5 hrs at 37° C., One-Glo Ex; geometric mean; read-out: DGK NFKb Luciferase EC50;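 note: bioluminescence read-out normalized to DMSO basal activation and to maximum enhancement at 1 µM compound, rising signal indicating stronger T-cell activation through DGKα inhibition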
Description: The activity of compounds was tested in a cell based NFκB reporter assay. Jurkat cells that are stably expressing a luciferase reporter construct under the transcriptional control of a NFκB reporter element were activated with an anti-CD3 antibody and luciferase levels were measured with a bioluminescence readout.
The day after, the excess antibody was washed out five times with 100 ul/well of assay medium (RPMI supplemented with 10% fetal bovine serum) using a Biotek EL406 instrument and leaving 20 µl of residual volume in each well. Jurkat NFκB-luciferase cells (Promega #) were harvested and diluted to 1 million cells/ml in assay medium. Sixty nanoliters of test compound dissolved in DMSO at various concentrations were dispensed into 384-well v-bottom polypropylene plates (Greiner) using a Labcyte Echo instrument. Thirty microliters of medium containing the Jurkat NFκB-luciferase cells were then dispensed using a Biotek MicroFlo instrument in each well of the compound-containing plate. The medium/cell/compound mixture was mixed with a Bravo instrument and 20 ul/well of the mixture was transferred to the anti-CD3-coated plate. The assay mixture was then incubated for 2.5 hrs at 37° C. followed by equilibration at 25° C. for 30 min. Forty microliters of One-Glo Ex (Promega) was then added to the assay mixture and luciferase activity was read on a Envision plate reader 7 minutes later.
Bioluminescence data were normalized based on maximum enhancement (1 micromolar of compound) and on basal activation (DMSO) controls. Least squares curve fittings were performed using a four-parameter variable slope nonlinear regression model. […] EC50 values from multiple experiments were averaged by geometric mean and the standard deviation was calculated.

human DGKα = target: T1, human DGKα (Homo sapiens, UniProt P23743); test: DGKα Biochemical Activity Assay (ADP-Glo);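 note: recombinant enzyme converting diacylglycerol in lipid micelles with ATP, ADP formed detected by luminescence, IC50 from a four-parameter nonlinear fit, geometric mean across experiments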
T1 construct: purchased Carna Biosciences'; inferred from the same paragraph's 'obtained from Carna Biosciences')
T1 sequence (P23743 whole entry): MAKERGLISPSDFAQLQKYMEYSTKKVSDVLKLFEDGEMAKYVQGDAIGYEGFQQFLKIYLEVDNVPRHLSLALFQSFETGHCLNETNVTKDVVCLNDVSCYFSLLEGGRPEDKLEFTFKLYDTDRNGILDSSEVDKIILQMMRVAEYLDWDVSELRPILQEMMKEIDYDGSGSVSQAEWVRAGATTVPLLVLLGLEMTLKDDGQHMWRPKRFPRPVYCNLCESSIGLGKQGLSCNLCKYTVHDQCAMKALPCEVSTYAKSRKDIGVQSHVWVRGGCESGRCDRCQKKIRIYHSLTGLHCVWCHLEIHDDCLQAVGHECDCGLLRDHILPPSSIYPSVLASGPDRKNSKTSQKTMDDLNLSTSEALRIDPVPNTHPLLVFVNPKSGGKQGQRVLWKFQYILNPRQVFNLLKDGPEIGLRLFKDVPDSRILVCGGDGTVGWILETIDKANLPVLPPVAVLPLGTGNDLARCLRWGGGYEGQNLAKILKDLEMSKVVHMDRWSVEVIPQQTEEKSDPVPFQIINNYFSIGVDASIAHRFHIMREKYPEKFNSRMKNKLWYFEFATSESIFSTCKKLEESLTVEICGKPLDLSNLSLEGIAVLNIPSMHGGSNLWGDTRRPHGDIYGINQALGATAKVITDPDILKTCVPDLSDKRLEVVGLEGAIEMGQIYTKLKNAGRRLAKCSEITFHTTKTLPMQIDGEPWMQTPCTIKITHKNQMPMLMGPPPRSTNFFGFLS
Excerpt: Alternatively, the enzymatic activity of human DGKα was monitored in a biochemical assay in the presence or absence of compounds and using micelles containing 18:1 Diacylglycerol (DAG), 16:0-18:1 PS (POPS) and Octylglucoside as substrate. DGKα activity led to conversion of DAG and ATP to Phosphatidic Acid (PA) and ADP. Levels of ADP were monitored by bioluminescence using the ADP-Glo Kinase Assay (Promega) and were indicative of DGKα activity.
Ten nanoliters of test compound dissolved in DMSO at various concentrations were dispensed into a 384-well low volume nonbinding service white plates (Corning #3824) using a Labcyte Echo instrument. Recombinant DGKα Biosciences) in assay buffer (5 μL in 50 mM MOPS [3-(N-morpholino) propanesulfonic acid], pH 7.2; 0.0025% Triton X-100; 1 mM dithiothreitol; 5 mM MgCl2, 200 μM ATP) was added to the compound-containing plate and was incubated for 15 minutes at 25° C. A substrate solution (5 μL in 1.7 mM 1,2-dioleoyl-sn-glycerol [18:1 DAG], 13.5 mM 1-palmitoyl-2-oleoyl-sn-glycero-3-phospho-L-serine [16:0-18:1 PS](POPS), 2 μM CaCl2), 100 mM Octylglucoside (OG), 1 mM DTT) (obtained from Carna Biosciences) diluted in DGK ALPHA assay buffer was then added to start the reaction. Final concentrations were 1 nM DGKα, 100 μM ATP, 1 μM calcium chloride, 0.85 mM 1,2-dioleoyl-sn-glycerol (18:1 DAG), 6.75 mM 1-palmitoyl-2-oleoyl-sn-glycero-3-phospho-L-serine (16:0-18:1 PS) (POPS), 1 μM CaCl2), 50 mM Octylglucoside (OG) and 5 mM MgCl2. The reaction mixture was incubated at 25° C. for 1 hour. ADP-Glo Reagent (10 μL, 10 mM Mg added) provided by the kit was added to each well and incubated at 25° C. for 40 minutes. Then, 20 μL of Kinase Detection Reagent was added and incubated at 25° C. for 40 minutes. Luciferase activity of each well was measured via luminescence on an Envision plate reader (PerkinElmer).
Least squares curve fittings were performed using a four-parameter variable slope nonlinear regression model. […] IC50 values from multiple experiments were averaged by geometric mean and the standard deviation was calculated.

| SMILES | EC50 [1] | IC50 (human DGKα) |
| --- | --- | --- |
| Cn1c(=O)nc(N(CC(F)(F)F)c2cc(F)cc(C#CC3(C(F)(F)F)CC3)c2)c2c(F)cccc21 [Example 31, 5-fluoro-4-[3-fluoro-N-(2,2,2-trifluoroethyl)-5-[2-[1-(trifluoromethyl)cyclopropyl]ethynyl]anilino]-1-methyl-quinazolin-2-one] | 2.89 nM | 45.7 nM |
| Cn1c(=O)nc(N(CC(F)(F)F)c2cc(F)cc(C#CC3(C(F)(F)F)CC3)c2)c2ccc(Cl)cc21 [Example 32, 7-chloro-4-[3-fluoro-N-(2,2,2-trifluoroethyl)-5-[2-[1-(trifluoromethyl)cyclopropyl]ethynyl]anilino]-1-methyl-quinazolin-2-one] | 1.02 nM | 123 nM |
| O=c1nc(N(CC(F)F)c2cc(F)cc(C#CC3(C(F)(F)F)CC3)c2)c2ccc(Cl)cc2n1CCO [Example 33, 7-chloro-4-[N-(2,2-difluoroethyl)-3-fluoro-5-[2-[1-(trifluoromethyl)cyclopropyl]ethynyl]anilino]-1-(2-hydroxyethyl)quinazolin-2-one] | 3.65 nM | 284 nM |
| CC(C)(O)C#Cc1cc(F)cc(N(CC(F)F)c2nc(=O)[nH]c3cccc(F)c23)c1 [Example 34, 4-[N-(2,2-difluoroethyl)-3-fluoro-5-(3-hydroxy-3-methyl-but-1-ynyl)anilino]-5-fluoro-1H-quinazolin-2-one] | 13.4 nM | 32.8 nM |
| O=c1nc(N(CC(F)F)c2cc(F)cc(C#CC3(C(F)(F)F)CC3)c2)c2c(F)c(F)ccc2[nH]1 [Example 35, 4-[N-(2,2-difluoroethyl)-3-fluoro-5-[2-[1-(trifluoromethyl)cyclopropyl]ethynyl]anilino]-5,6-difluoro-1H-quinazolin-2-one] | 0.999 nM | 159 nM |
| CCn1c(=O)nc(N(CC(F)F)c2cc(F)cc(C#CC3(C(F)(F)F)CC3)c2)c2c(F)cccc21 [Example 36, 4-[N-(2,2-difluoroethyl)-3-fluoro-5-[2-[1-(trifluoromethyl)cyclopropyl]ethynyl]anilino]-1-ethyl-5-fluoro-quinazolin-2-one] | 21.1 nM | 184 nM |
| CCn1c(=O)nc(N(CC(F)F)c2cc(F)cc(C#CC(C)(C)O)c2)c2c(F)cccc21 [Example 37, 4-[N-(2,2-difluoroethyl)-3-fluoro-5-(3-hydroxy-3-methyl-but-1-ynyl)anilino]-1-ethyl-5-fluoro-quinazolin-2-one] | 39.6 nM | 54.3 nM |
| [2H]C([2H])([2H])n1c(=O)nc(N(CC(F)F)c2cc(F)cc(C#CC(C)(C)O)c2)c2c(F)cccc21 [Example 38, 4-[N-(2,2-difluoroethyl)-3-fluoro-5-(3-hydroxy-3-methyl-but-1-ynyl)anilino]-5-fluoro-1-(trideuteriomethyl)quinazolin-2-one] | 11.1 nM | 16 nM |
| O=c1nc(N(CC(F)F)c2cc(F)cc(-c3cnc(C4CC4)cn3)c2)c2c(F)c(F)ccc2[nH]1 [Example 39, 4-[3-(5-cyclopropylpyrazin-2-yl)-N-(2,2-difluoroethyl)-5-fluoro-anilino]-5,6-difluoro-1H-quinazolin-2-one] | 0.705 nM | 13.4 nM |
| O=c1nc(N2CCCc3c(C#CC4(C(F)(F)F)CC4)cccc32)c2c(F)c(F)ccc2[nH]1 [Example 40, 5,6-difluoro-4-[5-[2-[1-(trifluoromethyl)cyclopropyl]ethynyl]-3,4-dihydro-2H-quinolin-1-yl]-1H-quinazolin-2-one] | 0.399 nM | 13.4 nM |
| [2H]C([2H])([2H])n1c(=O)nc(N(CC(F)F)c2cc(F)cc(C#CC3(C(F)(F)F)CC3)c2)c2c(F)c(F)ccc21 [Example 41, 4-[N-(2,2-difluoroethyl)-3-fluoro-5-[2-[1-(trifluoromethyl)cyclopropyl]ethynyl]anilino]-5,6-difluoro-1-(trideuteriomethyl)quinazolin-2-one] | 1 nM | 9.63 nM |
| [2H]C([2H])([2H])n1c(=O)nc(N2CCCc3c(C#CC4(C(F)(F)F)CC4)cccc32)c2c(F)c(F)ccc21 [Example 42, 5,6-difluoro-1-(trideuteriomethyl)-4-[5-[2-[1-(trifluoromethyl)cyclopropyl]ethynyl]-3,4-dihydro-2H-quinolin-1-yl]quinazolin-2-one] | 0.311 nM | 9.48 nM |
| CC(C)(O)C#Cc1cccc2c1CCCN2c1nc(=O)[nH]c2cccc(F)c12 [Example 43, 5-fluoro-4-[5-(3-hydroxy-3-methyl-but-1-ynyl)-3,4-dihydro-2H-quinolin-1-yl]-1H-quinazolin-2-one] | 2.53 nM | 1.84 nM |
| [2H]C([2H])([2H])n1c(=O)nc(N(CC(F)F)c2cc(F)cc(-c3cnc(C4CC4)cn3)c2)c2c(F)cccc21 [Example 44, 4-[3-(5-cyclopropylpyrazin-2-yl)-N-(2,2-difluoroethyl)-5-fluoro-anilino]-5-fluoro-1-(trideuteriomethyl)quinazolin-2-one] | 1.43 nM | 11.2 nM |
| O=c1nc(N(CC(F)F)c2cncc(C#CC3(C(F)(F)F)CC3)c2)c2cc(F)ccc2[nH]1 [Example 45, 4-((2,2-difluoroethyl)(5-((1-(trifluoromethyl)cyclopropyl)ethynyl)pyridin-3-yl)amino)-6-fluoroquinazolin-2(1H)-one] | 6.18 nM | 67.4 nM |
| O=c1nc(N(CC(F)F)c2cccc(C#CC3(C(F)(F)F)CC3)n2)c2cc(F)ccc2[nH]1 [Example 46, 4-((2,2-difluoroethyl)(6-((1-(trifluoromethyl)cyclopropyl)ethynyl)pyridin-2-yl)amino)-6-fluoroquinazolin-2(1H)-one] | 15.3 nM | 86.9 nM |
| Cn1c(=O)nc(N(CC(F)F)c2cccc(C#CC3(C(F)(F)F)CC3)n2)c2cc(F)ccc21 [Example 47, 4-((2,2-difluoroethyl)(6-((1-(trifluoromethyl)cyclopropyl)ethynyl)pyridin-2-yl)amino)-6-fluoro-1-methylquinazolin-2(1H)-one] | 1.37 nM | 15 nM |
| O=c1nc(N(CC(F)F)c2cccc(C#CC3(C(F)(F)F)CC3)c2F)c2cc(F)ccc2[nH]1 [Example 48, 4-[N-(2,2-difluoroethyl)-2-fluoro-3-[2-[1-(trifluoromethyl)cyclopropyl]ethynyl]anilino]-6-fluoro-1H-quinazolin-2-one] | 5.29 nM | 62.8 nM |
| CC(C)(C#Cc1cccc(N(CC(F)F)c2nc(=O)[nH]c3ccc(F)cc23)c1F)C(F)(F)F [Example 49, 4-[N-(2,2-difluoroethyl)-2-fluoro-3-(4,4,4-trifluoro-3,3-dimethyl-but-1-ynyl)anilino]-6-fluoro-1H-quinazolin-2-one] | 5.3 nM | 296 nM |
| O=c1nc(N(CC(F)F)c2cc(F)cc(C#CC3(C(F)(F)F)CC3)c2)c2cc(F)ccc2[nH]1 [Example 50, 4-[N-(2,2-difluoroethyl)-3-fluoro-5-[2-[1-(trifluoromethyl)cyclopropyl]ethynyl]anilino]-6-fluoro-1H-quinazolin-2-one] | 1.81 nM | 213 nM |
| [2H]C([2H])([2H])n1c(=O)nc(N(CC(F)F)c2cc(F)cc(C#CC3(C(F)(F)F)CC3)c2)c2cc(F)ccc21 [Example 51, 4-[N-(2,2-difluoroethyl)-3-fluoro-5-[2-[1-(trifluoromethyl)cyclopropyl]ethynyl]anilino]-6-fluoro-1-(trideuteriomethyl)quinazolin-2-one] | 0.75 nM | 35.3 nM |
